According to PubChem BioAssay (NCI):
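Exposure lasted 48 hours, with cells grown in 96-well plates and compounds tested at five concentrations. TGI denotes the concentration required for complete inhibition of growth.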

Tests used:
Experiment in all cases: NCI-60 cell line screen, 48 h
786-0 renal = system: 786-0 renal
HCT-15 colon = system: HCT-15 colon
TK-10 renal = system: TK-10 renal
LXFL 529 NSCLC = system: LXFL 529 NSCLC
UACC-257 melanoma = system: UACC-257 melanoma
HT29 colon = system: HT29 colon
MALME-3M melanoma = system: MALME-3M melanoma
OVCAR-5 ovarian = system: OVCAR-5 ovarian
DMS 273 small cell lung = system: DMS 273 small cell lung
OVCAR-4 ovarian = system: OVCAR-4 ovarian
NCI-H226 lung = system: NCI-H226 lung
A549 NSCLC = system: A549 NSCLC
UACC-62 melanoma = system: UACC-62 melanoma
HCT-116 colon = system: HCT-116 colon
U251 CNS = system: U251 CNS
KM20L2 colon = system: KM20L2 colon
DMS 114 small cell lung = system: DMS 114 small cell lung
SF-295 CNS = system: SF-295 CNS
HOP-62 NSCLC = system: HOP-62 NSCLC
HL-60(TB) leukemia = system: HL-60(TB) leukemia
SNB-75 CNS = system: SNB-75 CNS
COLO 205 colon = system: COLO 205 colon
K-562 leukemia = system: K-562 leukemia
SK-MEL-5 melanoma = system: SK-MEL-5 melanoma
SN12C renal = system: SN12C renal
M19-MEL melanoma = system: M19-MEL melanoma
SNB-78 CNS = system: SNB-78 CNS
M14 melanoma = system: M14 melanoma
SW-620 colon = system: SW-620 colon
SK-OV-3 ovarian = system: SK-OV-3 ovarian
CAKI-1 renal = system: CAKI-1 renal
OVCAR-3 ovarian = system: OVCAR-3 ovarian
LOX IMVI melanoma = system: LOX IMVI melanoma
MOLT-4 leukemia = system: MOLT-4 leukemia
NCI-H23 lung = system: NCI-H23 lung
SNB-19 CNS = system: SNB-19 CNS
ACHN renal = system: ACHN renal
UO-31 renal = system: UO-31 renal
SK-MEL-28 melanoma = system: SK-MEL-28 melanoma
RPMI-8226 leukemia = system: RPMI-8226 leukemia
SF-268 CNS = system: SF-268 CNS
EKVX NSCLC = system: EKVX NSCLC
HCC-2998 colon = system: HCC-2998 colon
CCRF-CEM leukemia = system: CCRF-CEM leukemia
HOP-18 NSCLC = system: HOP-18 NSCLC
KM12 colon = system: KM12 colon
SK-MEL-2 melanoma = system: SK-MEL-2 melanoma
A498 renal = system: A498 renal
DLD-1 colon = system: DLD-1 colon
IGROV1 ovarian = system: IGROV1 ovarian
NCI-H522 lung = system: NCI-H522 lung
OVCAR-8 ovarian = system: OVCAR-8 ovarian
NCI-H460 lung = system: NCI-H460 lung
SF-539 CNS = system: SF-539 CNS
RXF 393 renal = system: RXF 393 renal
SR leukemia = system: SR leukemia

Measured: TGI

O=c1cccccc1NCCOCCNc1cccccc1=O
not listed: SF-539 CNS | RXF 393 renal | SR leukemia
> 100 µM: all other assays above

COC(=O)CCCN(C)c1n[nH]c(N)n1
not listed: MALME-3M melanoma | CAKI-1 renal | HOP-18 NSCLC | SK-MEL-2 melanoma | A498 renal | NCI-H522 lung
> 100 µM: all other assays above
